The values below come from patent US9078442B2, “Herbicidally and fungicidally active 3-phenylisoxazoline-5-carboxamides and 3-phenylisoxazoline-5-thioamides” (BAYER INTELLECTUAL PROPERTY GMBH, priority 2011, dated 2015).

The subject of one test is Peronospora parasitica. Description: In vivo test Peronospora parasitica (downy mildew on cabbage), protective. The following applies: application rate 500 g/ha, evaluation 5 days after infection. How it is done:
In vivo test Peronospora parasitica (downy mildew on cabbage) To prepare an appropriate active compound formulation, the active compound is mixed with acetone/Tween/DMSO and the mixture is diluted with water to the desired concentration. Cabbage plants are cultivated in 50/50 peat/pozzolan soil in small pots at 18-20° C. and sprayed at the cotyledon stage at the respective stated application rates to test for protective activity. Control plants were treated in the same manner, but using an aqueous solution without any active compounds. 24 hours after the spraying, the plants were sprayed with a spore suspension of Peronospora parasitica (50 000 spores/ml). The plants were placed in a cabin at 20° C. in a humid atmosphere for 5 days.
Take `CCn1cc(CNC(=O)C2(COC)CC(c3cc(Cl)cc(Cl)c3)=NO2)c(C)n1` (stereo not shown) [Example 5.029]: the “Activity [%] (efficacy)” value was 87%.

As to `CCn1cc(CNC(=O)C2(C(F)(F)F)CC(c3ccc(F)c(Cl)c3)=NO2)c(C)n1` (stereo not shown) [Example 3.170], the “Activity [%] (efficacy)” value turned out to be 94%.

As for `CNC(=O)C1(C(F)(F)F)CC(c2cc(Cl)cc(Cl)c2)=NO1` (stereo not shown) [Example 8.025], the “Activity [%] (efficacy)” value was 100%.

Turning to `Cc1n[nH]cc1CNC(=O)C1(C)CC(c2cc(F)cc(F)c2)=NO1` (stereo not shown) [Example 1.363], the “Activity [%] (efficacy)” value is 71%.

As for `CCOP(=O)(CNC(=O)C1(C)CC(c2cc(Cl)cc(Cl)c2)=NO1)OCC` (stereo not shown) [Example 6.433], the “Activity [%] (efficacy)” value stood at 100%.

As to `CCn1cc(CNC(=O)C2(C(F)(F)F)CC(c3cc(Cl)cc(Cl)c3)=NO2)c(C)n1` (stereo not shown) [Example 3.161], the “Activity [%] (efficacy)” value is listed as 100%.

As for `CC(C)n1cc(CNC(=O)C2(C)CC(c3cccc(F)c3)=NO2)c(Cl)n1` (stereo not shown) [Example 1.341], the “Activity [%] (efficacy)” value came to 95%.

Turning to `COCC#CC(C)(C)NC(=O)C1(C)CC(c2cc(Cl)cc(Cl)c2)=NO1` (stereo not shown) [Example 6.115], the “Activity [%] (efficacy)” value amounted to 100%.

Consider `Cc1nn(C)c(C)c1CNC(=O)C1(C)CC(c2cc(Cl)cc(Cl)c2)=NO1` (stereo not shown) [Example 1.108], for which the “Activity [%] (efficacy)” value stood at 100%.

On to `Cc1cc(CNC(=O)C2(C)CC(c3cc(F)cc(F)c3)=NO2)n(C)n1` (stereo not shown) [Example 1.120], for which the “Activity [%] (efficacy)” value is recorded as 99%.

Take `CC1(C(=O)NCc2nc(C(F)(F)F)cs2)CC(c2cc(Cl)cc(Cl)c2)=NO1` (stereo not shown) [Example 1.379]: the “Activity [%] (efficacy)” value turned out to be 96%.

In the case of `CC1(C(=O)NCc2nc(C3CC3)no2)CC(c2cc(Cl)cc(Cl)c2)=NO1` (stereo not shown) [Example 1.352], the “Activity [%] (efficacy)” value came out at 83%.

`Cc1nn(C)cc1CNC(=O)C1(C)CC(c2cc(Cl)cc(Cl)c2)=NO1` (stereo not shown) [Example 1.116]: the “Activity [%] (efficacy)” value worked out at 100%.

`CC1(C(=O)NCCc2ccccn2)CC(c2cc(Cl)cc(Cl)c2)=NO1` (stereo not shown) [Example 1.676]: the “Activity [%] (efficacy)” value turned out to be 85%.

The same test, now with this note: application rate 1200 g/ha, evaluation 5 days after infection.
Take `CC(C)NC(=O)C1(C2CC2)CC(c2cc(Cl)cc(Cl)c2)=NO1` (stereo not shown) [Example 10.032]: the “Activity [%] (efficacy)” value is listed as 96%.

Regarding `CCOCCCNC(=O)C1(C)CC(c2cc(Cl)cc(Cl)c2)=NO1` (stereo not shown) [Example 6.681], the “Activity [%] (efficacy)” value amounted to 97%.

Consider `O=C(NC1CC1)C1(C(F)(F)F)CC(c2cc(Cl)cc(Cl)c2)=NO1` (stereo not shown) [Example 8.052], for which the “Activity [%] (efficacy)” value came out at 100%.

On to `CCC1(C(=O)Nc2cc(C)nn2C)CC(c2cc(Cl)cc(Cl)c2)=NO1` (stereo not shown) [Example 2.003], for which the “Activity [%] (efficacy)” value was 90%.

As for `Cn1nccc1CNC(=O)C1(C)CC(c2cc(Cl)cc(Cl)c2)=NO1` (stereo not shown) [Example 1.291], the “Activity [%] (efficacy)” value is 88%.

Turning to `CC(C)NC(=O)C1(C)CC(c2cc(F)cc(Cl)c2)=NO1` (stereo not shown) [Example 6.190], the “Activity [%] (efficacy)” value is recorded as 100%.

Regarding `CC1(C(=O)NCc2ccncc2)CC(c2cc(Cl)cc(Cl)c2)=NO1` (stereo not shown) [Example 1.458], the “Activity [%] (efficacy)” value was 81%.

The subject of a further test is Mycosphaerella graminicola. Description: In vivo test Mycosphaerella graminicola (wheat). The settings on record: Mycosphaerella graminicola on wheat, application rate 500 g/ha, evaluation 21-28 days after inoculation. How it is done:
Wheat plants (cultivar: (Scipion) are cultivated in 50/50 peat pozzolan substrate at 12° C. and sprayed at the 1-leaf stage with the active compound preparation as given in Example A. After 24 hours, the plants are sprayed with a spore suspension of Mycosphaerella graminicola (500 000 spores/ml).
For `CC1(C(=O)NCC2CCCCC2)CC(c2cc(Cl)cc(Cl)c2)=NO1` (stereo not shown) [Example 6.430], the “Activity [%] (efficacy)” value was found to be 81%.

Turning to `Cc1cc(Cl)cc(C2=NOC(C)(C(=O)NC3CC3)C2)c1` (stereo not shown) [Example 6.072], the “Activity [%] (efficacy)” value worked out at 98%.

On to `CCOC(=O)Cc1ccc(NC(=O)C2(C)CC(c3cc(Cl)cc(Cl)c3)=NO2)cc1` (stereo not shown) [Example 1.057], for which the “Activity [%] (efficacy)” value amounted to 91%.

Take `CNC(=O)C1(C)CC(c2cc(Br)cc(Br)c2)=NO1` (stereo not shown) [Example 6.022]: the “Activity [%] (efficacy)” value was 98%.

In the case of `CC(C)NC(=O)C1(C)CC(c2cc(Br)cc(C(F)(F)F)c2)=NO1` (stereo not shown) [Example 6.184], the “Activity [%] (efficacy)” value worked out at 100%.

For `CCn1cc(NC(=O)C2(C)CC(c3cc(Cl)cc(Cl)c3)=NO2)c(C)n1` (stereo not shown) [Example 1.017], the “Activity [%] (efficacy)” value is 88%.

Consider `CC1(C(=O)NCc2ccccc2C(=O)O)CC(c2cc(Cl)cc(Cl)c2)=NO1` (stereo not shown) [Example 1.315], for which the “Activity [%] (efficacy)” value is on record as 100%.
